# Results published in patent US20140023611A1 (priority 2010, published 2014).
# What was measured:
# [1] = target: T1, rat NaP2b (SLC34A2) (Rattus norvegicus, UniProt Q9JJ09); experiment: Inhibition of NaP2b-mediated Pi (33P) uptake in transfected HEK293 cells, rat NaP2b; assay type: cell-based; details: 33P Pi uptake, 0.1 mM phosphate, value given as pIC50 range
# T1 construct: host or cells: HEK293
# T1 sequence (Q9JJ09 1-695): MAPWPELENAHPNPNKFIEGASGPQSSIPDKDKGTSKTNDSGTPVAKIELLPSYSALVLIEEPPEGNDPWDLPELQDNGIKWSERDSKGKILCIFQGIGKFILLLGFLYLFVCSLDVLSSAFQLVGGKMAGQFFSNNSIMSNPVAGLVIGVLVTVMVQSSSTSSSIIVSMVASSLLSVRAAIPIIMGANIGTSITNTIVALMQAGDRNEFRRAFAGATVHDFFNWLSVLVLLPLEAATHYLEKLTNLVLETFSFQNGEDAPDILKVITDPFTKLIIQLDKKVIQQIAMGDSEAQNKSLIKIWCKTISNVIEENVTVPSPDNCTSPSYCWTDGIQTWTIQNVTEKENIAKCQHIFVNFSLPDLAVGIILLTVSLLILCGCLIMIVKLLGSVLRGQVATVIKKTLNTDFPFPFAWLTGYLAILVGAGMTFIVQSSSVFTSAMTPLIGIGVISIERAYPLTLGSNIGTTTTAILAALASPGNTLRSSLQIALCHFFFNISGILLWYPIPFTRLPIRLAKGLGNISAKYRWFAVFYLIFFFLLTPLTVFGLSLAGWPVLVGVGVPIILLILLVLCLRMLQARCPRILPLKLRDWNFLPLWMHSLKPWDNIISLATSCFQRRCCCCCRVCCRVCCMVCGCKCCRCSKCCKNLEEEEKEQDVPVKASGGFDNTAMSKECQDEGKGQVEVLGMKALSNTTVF
# In short: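 The cells transiently expressed NaP2b after Lipofectamine transfection. Each compound was run in duplicate over twelve concentrations, 0.1 nM–30 uM.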
# [2] = target: T2, human NaP2b (SLC34A2) (Homo sapiens, UniProt O95436); experiment: Inhibition of NaP2b-mediated Pi (33P) uptake in transfected HEK293 cells, human NaP2b; assay type: cell-based; details: read-out: pIC50 range for human NaP2b (converted)
# T2 construct: host or cells: HEK293
# T2 sequence (O95436 1-690): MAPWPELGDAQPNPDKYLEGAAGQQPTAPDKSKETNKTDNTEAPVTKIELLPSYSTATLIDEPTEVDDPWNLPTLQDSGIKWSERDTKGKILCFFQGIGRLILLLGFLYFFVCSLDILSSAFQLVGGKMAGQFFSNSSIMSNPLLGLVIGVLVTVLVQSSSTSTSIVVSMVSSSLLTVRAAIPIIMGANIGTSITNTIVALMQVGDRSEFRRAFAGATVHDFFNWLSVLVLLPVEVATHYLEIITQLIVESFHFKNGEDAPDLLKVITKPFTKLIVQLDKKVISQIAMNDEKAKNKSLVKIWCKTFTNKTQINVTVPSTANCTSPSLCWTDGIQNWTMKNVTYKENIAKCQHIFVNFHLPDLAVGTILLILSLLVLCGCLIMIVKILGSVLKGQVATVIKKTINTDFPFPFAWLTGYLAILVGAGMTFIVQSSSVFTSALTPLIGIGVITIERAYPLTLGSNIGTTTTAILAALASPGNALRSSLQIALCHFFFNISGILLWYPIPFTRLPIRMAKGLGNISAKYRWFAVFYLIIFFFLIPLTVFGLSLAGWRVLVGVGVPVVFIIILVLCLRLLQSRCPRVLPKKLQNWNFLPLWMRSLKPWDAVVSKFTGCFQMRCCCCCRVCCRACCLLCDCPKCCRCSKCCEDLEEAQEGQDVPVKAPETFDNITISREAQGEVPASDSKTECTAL
# In short: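 Uptake of 33P-phosphate (100 uM KH2PO4 carrier, sodium vs choline buffer, pH 7.4) measured after 3-30 min at room temperature, with test compound at twelve concentrations from 0.1 nM to 30 uM in duplicate. Cells were HEK293 transfected with mutated human NaP2b (Thr insertion after 37, N39D) and treated with a PiT-silencing agent. pIC50 values from scintillation counts.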
SMILES,IC50 [1],IC50 [2]
"CCN(CC)c1ccc(NC(=O)c2cccc(CCCOCCOCCOCCOCCC(=O)N3CCN(c4ccc(OCCOCCOCCOC)cc4)CC3)c2)c(-c2cc(C(=O)NCc3cccc(C(F)(F)F)c3)ccn2)c1 [Example 263, 2-(5-(diethylamino)-2-(3-(16-(4-(4-(2-(2-(2-methoxyethoxy)ethoxy)ethoxy)phenyl)piperazin-1-yl)-16-oxo-4,7,10,13-tetraoxahexadecyl)benzamido)phenyl)-N-(3-(trifluoromethyl)benzyl)isonicotinamide]",1000 to 7940 nM,< 1000 nM
"CCN(CC)c1ccc(NC(=O)c2cccc(C#CCOCCOCCOCCOCCO)c2)c(-c2cc(C(=O)NCc3cccc(C(F)(F)F)c3)ccn2)c1 [Example 266, 2-(5-(diethylamino)-2-(3-(1-hydroxy-3,6,9,12-tetraoxapentadec-14-yn-15-yl)benzamido)phenyl)-N-(3-(trifluoromethyl)benzyl)isonicotinamide]",1000 to 7940 nM,1000 to 7940 nM
"CCN(CC)c1ccc(NC(=O)c2cccc(CCCOCCOCCOCCOCCO)c2)c(-c2cc(C(=O)NCc3cccc(C(F)(F)F)c3)ccn2)c1 [Example 267, 2-(5-(diethylamino)-2-(3-(1-hydroxy-3,6,9,12-tetraoxapentadecan-15-yl)benzamido)phenyl)-N-(3-(trifluoromethyl)benzyl)isonicotinamide]",< 1000 nM,< 1000 nM
"CCN(CC)c1ccc(NC(=O)c2cccc(C#CCOCCOCCOCCOCCOCCOCCOCCOCCOC)c2)c(-c2cc(C(=O)NCc3cccc(C(F)(F)F)c3)ccn2)c1 [Example 268, 2-(2-(3-(2,5,8,11,14,17,20,23,26-nonaoxanonacos-28-yn-29-yl)benzamido)-5-(diethylamino)phenyl)-N-(3-(trifluoromethyl)benzyl)isonicotinamide]",< 1000 nM,< 1000 nM
"CCN(CC)c1ccc(NC(=O)c2cccc(CCCOCCOCCOCCOCCNC(=O)N(C)CCOCCOCCOCCOCCOCCOCCOC)c2)c(-c2cc(C(=O)NCc3cccc(C(F)(F)F)c3)ccn2)c1 [Example 273, 2-(5-(diethylamino)-2-(3-(23-methyl-24-oxo-2,5,8,11,14,17,20,28,31,34,37-undecaoxa-23,25-diazatetracontan-40-yl)benzamido)phenyl)-N-(3-(trifluoromethyl)benzyl)isonicotinamide]",1000 to 7940 nM,1000 to 7940 nM
"CCN(CC)c1ccc(NC(=O)c2cccc(CCCOCCOCCOCCOCCNC(=O)N(CCO)CCO)c2)c(-c2cc(C(=O)NCc3cccc(C(F)(F)F)c3)ccn2)c1 [Example 274, 2-(5-(diethylamino)-2-(3-(1-hydroxy-3-(2-hydroxyethyl)-4-oxo-8,11,14,17-tetraoxa-3,5-diazaicosan-20-yl)benzamido)phenyl)-N-(3-(trifluoromethyl)benzyl)isonicotinamide]",1000 to 7940 nM,1000 to 7940 nM
COCCOCCOCCOCCOCCOCCOCCN(C)C(=O)CCOCCOCCOCCOCCCc1cccc(C(=O)Nc2ccc(N3CCCCC3)cc2-c2cc(C(=O)NCc3cccc(C(F)(F)F)c3)ccn2)c1 [Example 276],1000 to 7940 nM,1000 to 7940 nM
O=C(NCc1cccc(C(F)(F)F)c1)c1ccnc(-c2cc(N3CCCCC3)ccc2NC(=O)c2cccc(CCCOCCOCCOCCOCCC(=O)N(CCO)CCO)c2)c1 [Example 277],1000 to 7940 nM,1000 to 7940 nM
O=C(CCOCCOCCOCCOCCCc1cccc(C(=O)Nc2ccc(N3CCCCC3)cc2-c2cc(C(=O)NCc3cccc(C(F)(F)F)c3)ccn2)c1)NC(CO)(CO)CO [Example 278],1000 to 7940 nM,1000 to 7940 nM
CCN(CC)c1ccc(NC(=O)c2cccc(CCCOCCOCCOCCOCCC(=O)NCCOCCOCCOCCOCCOCCOCCOCCOC)c2)c(-c2cc(C(=O)N[C@H]3CCCc4ccccc43)ccn2)c1 [Example 279],1000 to 7940 nM,1000 to 7940 nM
"CC(C)(C)OC(=O)CCOCCOCCOCCOCCCc1cccc(C(=O)Nc2ccc(OC3CCC3)cc2-c2cc(C(=O)N[C@H]3CCCc4ccccc43)ccn2)c1 [Example 284, (S)-tert-butyl 16-(3-((4-cyclobutoxy-2-(4-((1,2,3,4-tetrahydronaphthalen-1-yl)carbamoyl)pyridin-2-yl)phenyl)carbamoyl)phenyl)-4,7,10,13-tetraoxahexadecan-1-oate]",1000 to 7940 nM,1000 to 7940 nM

# Further lines, results first:
IC50 [1],IC50 [2],SMILES
< 1000 nM,< 1000 nM,CCN(CC)c1ccc(NC(=O)c2cccc(CCCOCCOCCOCCOCCC(=O)N(C)CCOCCOCCOCCOCCOCCOCCOC)c2)c(-c2cc(C(=O)N[C@H]3CCCc4ccccc43)ccn2)c1 [Example 280]
< 1000 nM,1000 to 7940 nM,CCN(CC)c1ccc(NC(=O)c2cccc(CCCOCCOCCOCCOCCC(=O)N(CCO)CCO)c2)c(-c2cc(C(=O)N[C@H]3CCCc4ccccc43)ccn2)c1 [Example 282]
< 1000 nM,1000 to 7940 nM,CCN(CC)c1ccc(NC(=O)c2cccc(CCCOCCOCCOCCOCCC(=O)NC(CO)(CO)CO)c2)c(-c2cc(C(=O)N[C@H]3CCCc4ccccc43)ccn2)c1 [Example 283]
1000 to 7940 nM,1000 to 7940 nM,"CCN(CC)c1ccc(NC(=O)c2cccc(CCCOCCOCCOCCOCCNS(=O)(=O)c3cccc(C(=O)O)c3)c2)c(-c2cc(C(=O)NCc3cccc(C(F)(F)F)c3)ccn2)c1 [Example 289, 3-(N-(15-(3-(4-(diethylamino)-2-(4-(3-(trifluoromethyl)benzylcarbamoyl)pyridin-2-yl)phenylcarbamoyl)phenyl)-3,6,9,12-tetraoxapentadecyl)sulfamoyl)benzoic acid]"
10000 to 31600 nM,1000 to 7940 nM,"CCN(CC)c1ccc(NC(=O)c2cccc(CCCOCCOCCOCCOCCC(=O)N3CCN(S(=O)(=O)c4ccc(C(=O)O)cc4)CC3)c2)c(-c2cc(C(=O)NCc3cccc(C(F)(F)F)c3)ccn2)c1 [Example 290, 4-(4-(16-(3-(4-(diethylamino)-2-(4-(3-(trifluoromethyl)benzylcarbamoyl)pyridin-2-yl)phenylcarbamoyl)phenyl)-4,7,10,13-tetraoxahexadecane)piperazin-1-ylsulfonyl)benzoic acid]"
1000 to 7940 nM,< 1000 nM,"CCN(CC)c1ccc(NC(=O)c2cccc(CCCOCCOCCOCCOCCC(=O)N3CCN(S(=O)(=O)c4ccc(C)cc4)CC3)c2)c(-c2cc(C(=O)NCc3cccc(C(F)(F)F)c3)ccn2)c1 [Example 291, 2-(5-(diethylamino)-2-(3-(16-oxo-16-(4-tosylpiperazin-1-yl)-4,7,10,13-tetraoxahexadecyl)benzamido)phenyl)-N-(3-(trifluoromethyl)benzyl)isonicotinamide]"
1000 to 7940 nM,< 1000 nM,"CCN(CC)c1ccc(NC(=O)c2cccc(CCCOCCOCCOCCOCCC(=O)N3CCN(S(=O)(=O)C(C)C)CC3)c2)c(-c2cc(C(=O)NCc3cccc(C(F)(F)F)c3)ccn2)c1 [Example 292, 2-(5-(diethylamino)-2-(3-(16-(4-(isopropylsulfonyl)piperazin-1-yl)-16-oxo-4,7,10,13-tetraoxahexadecyl)benzamido)phenyl)-N-(3-(trifluoromethyl)benzyl)isonicotinamide]"
< 1000 nM,< 1000 nM,"CCN(CC)c1ccc(NC(=O)c2cccc(CCCOCCOCCOCCOCCC(=O)O)c2)c(-c2cc(C(=O)N[C@H]3CCCc4ccccc43)ccn2)c1 [Example 302, (S)-16-(3-(4-(diethylamino)-2-(4-(1,2,3,4-tetrahydronaphthalen-1-ylcarbamoyl)pyridin-2-yl)phenylcarbamoyl)phenyl)-4,7,10,13-tetraoxahexadecan-1-oic acid]"
